Measurements taken from patent publication US10588934B2, “Opioid peptide” (priority 2014, dated 2020).
Where two headings read alike, the source gives them in different places. Ends that are not written are not given here.

Key:
[1] = test system: Swiss mice; assay: Tail flick (tail removal) nociception test; assay type: in vivo, Mus musculus; details: for activity profile of the group given substance+naloxone compared with saline: with serial naloxone 4 mg/kg
Protocol: (§1) In vivo analyzes: Tests were carried out on Swiss mice of the Mus musculus species, in which nociception tests (hot plate and tail removal test) were used according to Le Bars et al. (2001). Injections were administered via intraperitoneal (IP). Doses were based upon dose and molaridade of the morphine (10 mg/kg animal).
(§2) FIGS. 1,2,3 and 4 represent the raw data obtained from the experiments after statistical analysis. The symbols (*, **, #) indicate the beginning of the statistically significant activity (S) or the statistically non-significant differences (NS). Analyzes of opioid activity were performed in two classical models of studies for this activity: Tail Flick or Hot Plate test.

[2] = test system: Swiss mice; assay type: in vivo, Mus musculus
Protocol: as §1, §2

[3] = test system: trypsin; details: 37° C., 15 minutes to 4 hours, MALDI
Protocol: Representation of the fragments obtained at the different incubation times with the enzyme trypsin. Analysis performed by mass spectrometry, MALDI. The first spectrum, marked with the letter A, refers to the time of 15 minutes; The second spectrum marked with the letter B indicates the time of 30 minutes; C indicates the time of 1 hour; D indicates the time of 2 hours; E indicates the time of 4 hours and, finally, F is the control peptide (SEQ ID NO: 2).

## YGGFL [Leu-enkephalin, reference compound]
[1]; tail-flick
  activity profile of the group given substance+naloxone compared with saline: no significant differences in activity profile
[2]; mouse, in vivo
  activity after administration of naloxone was discontinued: activity has also been resumed
  activity profile of the group given substance+naloxone compared with saline: no significant differences in activity profile

## SEQ ID NO: 1: opioid peptide of formula TyrProPhe-X1-TrpGlyGly-X2-ProPro (X1 Gly or Lys; X2 Ile or Val); exact sequence not printed in the text (YPFGWGGIPP)
[1]; tail flick, compared with morphine and Leu-enkephalin
  cumulative effect over time (area under the curve): greater than morphine and similar to Leu-enkephalin
[1]; tail-flick, IP, Leu-enkephalin 19.3 mg/kg, P>0.05
  time from which there was no significant difference from Leu-enkephalin (peptide positive control): no significant difference throughout the assay
[1]; tail-flick, IP, dose equimolar to morphine 10 mg/kg, test of 240 min
  time at which statistically significant antinociceptive action started, in relation to saline: 90 min
[1]; tail-flick, IP, morphine 10 mg/kg
  time from which there was no significant difference from morphine (positive control): 90 min
[1]; tail-flick, IP, test of 240 min
  time up to which the significant antinociceptive action lasted, in relation to saline: 240 min
[1]; tail-flick, serial hourly naloxone 4 mg/kg, P<0.001
  difference between peptide alone and peptide+naloxone (naloxone reversal): Except for the time of 30 min, there were significant differences
[1]; tail-flick
  activity profile of the group given substance+naloxone compared with saline: no significant differences in activity profile
[2]; hot plate, IP, morphine 10 mg/kg, P>0.05
  time from which there were no statistically significant differences from morphine: 60 min
[2]; hot plate, IP, test of 240 min
  persistence of the significant difference in relation to saline: at the time of 120 minutes, there was no significant difference
  time at which statistically significant antinociceptive activity started, in relation to saline: 60 min
[2]; hot plate, serial naloxone 4 mg/kg, later discontinued
  difference between peptide alone and peptide+naloxone (naloxone reversal): no significant differences only at 210 minutes and 240 minutes
[2]; hot plate, substance+naloxone group
  activity after administration of naloxone was discontinued: returned to action
[2]; mouse, in vivo
  cumulative effect over time (area below the curve): higher cumulative effect similar to morphine and Leu-encefaiina
  difference from Leu-enkephalin: no statistically significant differences

## C=CCN1CC[C@]23c4c5ccc(O)c4O[C@H]2C(=O)CC[C@@]3(O)[C@H]1C5 [naloxone, reference compound]
[1]; tail-flick, naloxone 4 mg/kg
  activity profile of naloxone alone compared with saline: no significant differences in activity profile
[2]; hot plate, naloxone 4 mg/kg
  activity profile of naloxone alone compared with saline: no significant differences in activity profile

## YPFKWGGVPP [SEQ ID NO: 2]
[3]
  intensity of the major (precursor ion) peak during incubation with the enzyme: will reduce its intensity
